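All cell lines were grown in 96-well plates and treated with compound for 48 hours. GI50 = concentration required for 50% inhibition of growth. TGI: total growth inhibition.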
What was measured:
Assay in all cases: NCI anticancer screen, dose series, 48 h
[1] = test system: ACHN renal
[2] = test system: HOP-92 NSCLC
[3] = test system: HT29 colon
[4] = test system: SK-MEL-28 melanoma
[5] = test system: SK-MEL-5 melanoma
[6] = test system: SN12C renal
[7] = test system: SNB-19 CNS
[8] = test system: SW-620 colon
[9] = test system: HS 578T breast
[10] = test system: BT-549 breast

| SMILES | TGI [1] | TGI [2] | TGI [3] | TGI [4] | TGI [5] | TGI [6] | TGI [7] | TGI [8] | GI50 [2] | GI50 [9] | TGI [9] | GI50 [3] | GI50 [4] | GI50 [5] | GI50 [6] | GI50 [7] | GI50 [1] | GI50 [10] | TGI [10] | GI50 [8] |
| --- | --- | --- | --- | --- | --- | --- | --- | --- | --- | --- | --- | --- | --- | --- | --- | --- | --- | --- | --- | --- |
| N#C/C(=C/c1ccc[nH]1)P(=O)(O)O | > 100 µM | > 100 µM | > 100 µM | > 100 µM | > 100 µM | > 100 µM | > 100 µM | > 100 µM | – | – | – | – | – | – | – | – | – | – | – | – |
| COC(=O)C(=O)OC1(C(C)=O)CC2(c3ccccc3)OC1(c1ccccc1)c1ccccc12 (stereo not given) | – | 27 µM | 30.7 µM | – | 28.8 µM | 28.6 µM | 47.3 µM | 30.3 µM | – | – | – | – | – | – | – | – | – | – | – | – |
| Oc1ccccc1C=NCc1ccco1 | > 100 µM | – | > 100 µM | > 100 µM | – | > 100 µM | > 100 µM | > 100 µM | – | – | – | – | – | – | – | – | – | – | – | – |
| CCC/C(=N/NC(=O)C(N)=O)C(CC)C(=O)CCC(=O)N(Cc1ccccc1)Cc1ccccc1 (stereo not given) | > 100 µM | > 100 µM | > 100 µM | > 100 µM | > 100 µM | > 100 µM | > 100 µM | > 100 µM | – | – | – | – | – | – | – | – | – | – | – | – |
| Cc1ccc(/C=C2/SC(Nc3nc(-c4csc(NC5=NC(=O)/C(=C\c6ccc(C)cc6)S5)n4)cs3)=NC2=O)cc1 | – | 24.5 µM | > 50 µM | > 50 µM | 1.4 µM | > 50 µM | > 50 µM | – | 7.03 µM | 21.9 µM | > 50 µM | 21.1 µM | 25 µM | 0.0217 µM | 5.54 µM | 12.6 µM | – | – | – | – |
| CC1(CO)OC(n2cc(C(=O)NC(=O)OCc3ccccc3)c(=O)[nH]c2=O)CC1O (stereo not given) | > 100 µM | > 100 µM | > 100 µM | > 100 µM | > 100 µM | > 100 µM | > 100 µM | > 100 µM | – | – | – | – | – | – | – | – | – | – | – | – |
| CC(C)c1ccc(C2C3=C(N=C4SCC(=O)N42)C(=O)c2ccccc23)cc1 (stereo not given) | > 100 µM | > 100 µM | > 100 µM | > 100 µM | > 100 µM | > 100 µM | > 100 µM | > 100 µM | – | – | – | – | – | – | – | – | – | – | – | – |
| COc1cc(/C=C(\C#N)C(=O)c2ccccc2)ccc1O | > 100 µM | – | > 100 µM | > 100 µM | > 100 µM | > 100 µM | > 100 µM | > 100 µM | – | – | – | – | – | – | – | – | – | – | – | – |
| Cc1cc(S(N)(=O)=O)c(S/C(CC(C)C)=N\Nc2ccc([N+](=O)[O-])cc2)cc1Cl | 17.4 µM | – | 15.3 µM | 27.8 µM | 23.2 µM | 9.88 µM | 27.3 µM | 29.9 µM | – | 11.9 µM | 30.1 µM | 3.88 µM | 13.9 µM | 11 µM | 2.76 µM | 13.2 µM | 5.44 µM | 17.7 µM | 31.7 µM | 8.82 µM |
| Fc1ccc2c(c1)c(-c1nc(-c3c[nH]c4ncccc34)cs1)cn2CCCN1CCCCC1 | – | 2.95 µM | 3.24 µM | 3.26 µM | 3.17 µM | 3.31 µM | – | 3.75 µM | 1.47 µM | 2.59 µM | 7.69 µM | 1.68 µM | 1.75 µM | 1.76 µM | 1.74 µM | – | – | 3.72 µM | 14.5 µM | 1.92 µM |
| CCOC(=O)N1CCc2cc(OC)c(OC)c3c2c1cc1cc(OC)c(OC)cc13 | > 95 µM | 44.8 µM | 21.6 µM | > 100 µM | 32.9 µM | > 100 µM | > 100 µM | 81.1 µM | – | – | – | – | – | – | – | – | – | – | 3.65 µM | – |
| O=[N+]([O-])c1nccn1CC(O)CN1CC1 (stereo not given) | > 100 µM | – | > 100 µM | > 100 µM | > 100 µM | > 100 µM | > 100 µM | > 100 µM | – | – | – | – | – | – | – | – | – | – | – | – |
| O=C1c2cc3c(cc2-c2c1c1ccc(Cl)cc1c(=O)n2CCCNCCO)OCO3 | 1.44 µM | 2.57 µM | 2.02 µM | 3.26 µM | 1.58 µM | 2.81 µM | – | 0.366 µM | 1.08 µM | 1.73 µM | 4 µM | 0.135 µM | 1.43 µM | 0.387 µM | 1.08 µM | – | 0.0383 µM | 0.941 µM | 2.49 µM | 0.0506 µM |
| C/C(=N\Nc1cc(C)c2cc(C)ccc2n1)c1ccccn1 | 1.14 µM | – | 1.65 µM | 1.77 µM | 1.27 µM | 4.12 µM | 13.7 µM | 1.98 µM | – | 1.16 µM | 6.87 µM | < 0.0407 µM | 0.135 µM | 0.0827 µM | 0.0607 µM | 0.145 µM | < 0.0424 µM | 0.276 µM | 17.2 µM | – |
| C[S+](C)CCOC(=O)C(=[N+]=[N-])c1ccc([N+](=O)[O-])cc1 | > 100 µM | – | > 100 µM | – | > 100 µM | > 100 µM | > 100 µM | > 100 µM | – | – | – | – | – | – | – | – | – | – | – | – |
| COc1cc2c3c(n(CCCN)c(=O)c2cc1OC)-c1cc2c(cc1/C3=C\CCN)OCO2 | 45 µM | > 49.4 µM | 10.6 µM | 9.67 µM | 11.8 µM | 3.81 µM | > 30.9 µM | > 66.2 µM | 3.69 µM | 11 µM | 55.7 µM | 0.373 µM | 2.15 µM | 4.55 µM | 0.0627 µM | 3.46 µM | 5.81 µM | – | – | 3.56 µM |
| COC(=O)/C([Se]c1c(C)cc(C)cc1C)=C(\[Se]c1c(C)cc(C)cc1C)C(=O)OC | > 100 µM | > 100 µM | > 100 µM | – | > 100 µM | > 100 µM | > 100 µM | > 100 µM | – | – | – | – | – | – | – | – | – | – | – | – |
| O=c1nc2n(-c3ccc(Cl)cc3)c3ccc([N+](=O)[O-])cc3cc-2c(=O)[nH]1 | > 100 µM | – | 43.1 µM | 61.6 µM | 41.6 µM | 44.5 µM | 83.3 µM | > 100 µM | – | – | – | 20.2 µM | 24.9 µM | 18.6 µM | 14.5 µM | 17.8 µM | 57.4 µM | 13.6 µM | 46.2 µM | 6.11 µM |
| N#CC(C(=O)CCC(=O)C(C#N)c1ccccc1)c1ccccc1 (stereo not given) | > 100 µM | > 100 µM | > 100 µM | > 100 µM | > 100 µM | > 100 µM | > 100 µM | > 100 µM | – | – | – | – | – | – | – | – | – | – | – | – |

Reference: PubChem BioAssay (NCI)
